Assay results as given in patent US20090232735A1, “USE OF FRUCTOSE-BASED THERAPIES FOR THE TREATMENT OF CANCER” (CEDARS-SINAI MEDICAL CENTER, priority 2005, published 2009).

Tests used:
Type in all cases: cell-based, human
[1] = test system: PANC-1 pancreatic cancer cells; experiment: FACS cell cycle profile of PANC-1 cells; details: PANC-1, 5.5 mM sugar, 48 h
Protocol: FIG. 15 depicts in the G0/G1 phase and the DNA synthesis (S) phase of pancreatic cells in glucose and fructose in accordance with an embodiment of the present invention. PANC-1 cells were plated in 2, and 5.5 mM glucose or 5.5 mM fructose for 48 h, after which cells were fixed in methanol, nuclei were stained with propidium iodide, and aliquots subjected to FACS analyzes.
This first result intrigued the inventors, but given there is little documentation regarding physiological fructose concentrations, the inventors first considered that the “apparent” pro-proliferative effects of fructose were simply a consequence of the highly stylized in vitro experimental conditions, and that if the pancreatic cancer cells were cultured in higher glucose concentrations, this would result in similar proliferative rates to those the inventors observed following culture in 5.5 mM fructose. Therefore, in the next experiments, the inventors compared proliferative rates of the PANC-1 pancreatic cancer cells following culture for 72 h in a range of fructose, and glucose concentrations (2-25 mM). This timepoint was chosen as the inventors had seen maximal pancreatic cancer cell proliferation in 5.5 mM fructose at 72 h. […] While not wishing to be bound by any particular theory, the inventors believe that this latter finding may be because the PANC-1 cells are proliferating at close to maximal capacity by 72 h, once they are exposed to comparatively low fructose concentrations (5 mM). MTS assay was employed to measure pancreatic cancer cell proliferative rates, which utilizes mitochondrial oxidation to quantify cell proliferation. As the inventors were examining carbohydrate-mediated effects, the inventors considered the change observed in proliferative rates, as measured by this assay, simply reflected changes in mitochondrial oxidation. Therefore, two additional methods were utilized to examine proliferative rates following fructose-treatment. […]

[2] = test system: MAPK pathway (pMEK, pRsk, pCREB) in MCF-7, and MDA-MB231 breast cancer cells; experiment: Western blot of MAPK pathway in breast cancer cells
Protocol: FIG. 11 depicts increased breast cancer phosphorylated-MEK, phosphorylated Rsk, and phosphorylated CREB in accordance with an embodiment of the present invention. MCF-7 breast cancer cells were incubated in 2 mM glucose, 5 mM glucose or 5 mM fructose for 24 hours, after which Western blot analysis on total protein lysates was employed to examine components of the MAP kinase pathway. […] Total MEK, Rsk, and CREB levels, and β-actin served as loading controls.
Although several signal transduction pathways are likely involved in the fructose-mediated enhanced breast cancer growth and while not wishing to be bound by any particular theory, the inventors believe that the MAP-kinase pathway is involved. The inventors have used Western blot analysis to examine the MAPK pathway in breast cancer cells incubated in 2 mM glucose, 5.5 mM glucose, and 5.5 mM fructose for 48 hours. […] Activation of MEK, and subsequently ERK results in phosphorylation of p90^Rsk, which leads to transcriptional activation of CREB and AP1, which bind to cAMP or AP1 response elements respectively, activating gene transcription and promoting cellular growth.

GLUT-5 mRNA = GLUT-5 mRNA by quantitative real-time RT-PCR in MCF-7 cells
Protocol: FIG. 10 depicts GLUT-5 expression levels in accordance with an embodiment of the present invention. MCF-7 breast cancer cells were incubated in 2 mM glucose (Glu), 5.5 mM glucose (Glu) or 5.5 mM fructose (Fru) for 4 or 24 hours, after which GLUT-5 expression was quantified using real-time RT-PCR, normalized to GAPDH levels, and expressed as fold-increase compared to GLUT-5 levels detected in MCF-7 cells cultured in 2 mM glucose for a similar time period.
Cellular fructose uptake is facilitated by a member of solute carrier family 2, called glucose transporter type 5 (GLUT-5). Following incubation of MCF-7 breast cancer cells in 2 mM, 5.5 mM glucose or 5.5 mM fructose for […], total RNA was harvested, and analyzed by quantitative real-time RT-PCR analysis using GLUT-5 specific primers to quantify GLUT-5 mRNA expression. GLUT-5 expression was normalized to GAPGH mRNA expression, and expressed as fold-change in comparison to control breast cancer cells incubated in 2 mM glucose for 4, and 24 hours.

SMILES: O=C(CO)[C@@H](O)[C@H](O)[C@H](O)CO [fructose]
- increase of cells in S-phase in comparison to 2 mM glucose [1]: ~17%
- percentage of cells in S-phase [1]: 47%
- percentage of cells in resting G0/G1 [1]: 21.2%
- phospho-MEK expression ([2]; 5.5 mM fructose vs 5.5 and 2 mM glucose, MCF-7 and MDA-MB231): increased expression of phospho-MEK (pMEK)
- phospho-Rsk and phospho-CREB ([2]; 5.5 mM fructose, 24 h, vs 5.5 and 2 mM glucose): increased phospho-Rsk (pRsk), and phospho-CREB (pCREB)
- increase in GLUT-5 mRNA compared to cells in 5.5 mM glucose (GLUT-5 mRNA; MCF-7, 5.5 mM fructose, 24 hour incubation): two-fold increase
- change in GLUT-5 mRNA expression (GLUT-5 mRNA; MCF-7, 4 hours, vs 2 mM glucose): no significant change
